Columns and labels:
p53-responsive element = experiment: p53-Luciferase reporter gene assay in UM-22B SCCHN cells; format: cell-based; settings: UM-22B p53-Luc, 2 μg transfected, 24 hrs
Procedure: FIG. 8 depicts the inhibition of reporter gene expression from a p53-responsive element in SCCHN cells. An SCCHN cell line, UM-22B, was used to generate a stable cell line expressing a p53-Luciferase (p53-Luc) reporter gene (The p53-Luc plasmid carrying 14 repeats of p53 transcription recognition sequence: 5'-[…] ID NO: 30)), was obtained from Stratagene, Catalog number: 219085-51). The cells were transfected with 2 μg of the STAT3 decoy or the control mutant decoy. At 24 hrs after transfection, luciferase (Luc) activity was measured and normalized to the total amount of protein according to standard methods.

GAS-responsive element = experiment: pGAS-Luc reporter gene assay in UM-22B SCCHN cells; format: cell-based; settings: UM-22B pGAS-Luc, 2 μg transfected, 24 hrs, IFN-γ stimulation
Procedure: FIG. 9 depicts the inhibition of reporter gene expression from GAS-responsive element in SCCHN cells. An SCCHN cell line, UM-22B, was used to generate a stable cell line expressing a pGAS-Luc reporter gene (pGAS-Luc plasmid carrying 4 repeats of GAS sequence: [NT] ID NO: 31), was obtained from Stratagene, Catalog number: 219091-51). The cells were transfected with 2 μg of the STAT3 decoy or the control mutant decoy. At 24 hrs after transfection, luciferase activity was measured and normalized to the total amount of protein.

STAT1 = biological target: T1, STAT1 (Homo sapiens, UniProt P42224); experiment: EMSA of STAT1 binding to the STAT3 decoy, PCI-15B nuclear extracts; settings: supershift
T1 construct: Nuclear protein extracts of PCI-15B cells, prepared according to standard methods, were used for the EMSA; endogenous in cells; host or cells: PCI-15B cells (nuclear extract)
T1 sequence (P42224 2-750 limits assumed): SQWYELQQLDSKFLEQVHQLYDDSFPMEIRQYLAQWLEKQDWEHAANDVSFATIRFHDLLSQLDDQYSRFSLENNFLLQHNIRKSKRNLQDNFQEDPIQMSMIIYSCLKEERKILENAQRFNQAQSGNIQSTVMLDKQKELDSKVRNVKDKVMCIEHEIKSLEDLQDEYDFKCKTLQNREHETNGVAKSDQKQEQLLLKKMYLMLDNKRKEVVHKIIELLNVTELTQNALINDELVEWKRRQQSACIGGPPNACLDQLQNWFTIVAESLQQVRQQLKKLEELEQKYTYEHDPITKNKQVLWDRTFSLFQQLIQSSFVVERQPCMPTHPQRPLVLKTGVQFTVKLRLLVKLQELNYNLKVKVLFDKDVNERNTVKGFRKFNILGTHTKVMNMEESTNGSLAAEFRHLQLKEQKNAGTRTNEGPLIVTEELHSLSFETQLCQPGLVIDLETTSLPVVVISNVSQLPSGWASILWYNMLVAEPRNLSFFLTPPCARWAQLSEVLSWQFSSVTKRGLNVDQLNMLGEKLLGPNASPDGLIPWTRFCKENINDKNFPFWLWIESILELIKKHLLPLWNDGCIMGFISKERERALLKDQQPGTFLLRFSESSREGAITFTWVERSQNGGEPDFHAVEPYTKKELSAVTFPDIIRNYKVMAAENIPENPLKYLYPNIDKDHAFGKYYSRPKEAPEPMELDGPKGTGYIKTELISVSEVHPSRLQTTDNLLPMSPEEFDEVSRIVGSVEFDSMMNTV
Procedure: FIG. 10 depicts binding of STAT 1 to the STAT3 decoy in an electrophoretic mobility shift assay (EMSA). Nuclear protein extracts of PCI-15B cells, prepared according to standard methods, were used for the EMSA. The specificity of STAT1 or STAT3 binding to the STAT3 decoy was determined by supershifting with STAT1- or STAT3-specific antibodies, or both. The experiment has been repeated more than 3 times.

PCI-15B cells = experiment: Gossypol dose response, MTT assays and cell counting; format: cell-based; settings: 72 h, day 3 after treatment
Procedure: In FIG. 7, PCI-15B cells were treated with 0, 0.003, 0.03, 3, and 30 μM gossypol. After 3 days, MTT assays and cell counting experiments were performed. […] Bars indicate standard error. […] The STAT3 decoy will be combined with gossypol to determine the antitumor efficacy of the combination treatment.

STAT3 = biological target: T2, STAT3 (Homo sapiens, UniProt P40763); experiment: EMSA of STAT3 decoy and derivative decoys, relative binding to STAT3
T2 construct: Whole cell extracts were prepared and EMSAs performed on 4% native polyacrylamide gels; endogenous in cells; host or cells: whole cell extracts
Procedure: Derivative decoys were identified by electrophoretic mobility shift assay, performed as described herein. Table 1 describes a number of STAT3 decoy derivatives along with their relative binding to STAT3.
Electrophoretic Mobility Shift Assay (EMSA). Whole cell extracts were prepared and EMSAs performed on 4% native polyacrylamide gels as described (Xi, S., et al. J Biol Chem, 278: 31574-31583, 2003 and Wong, P., etal. Mol Cell Biol, 14. 914-922, 1994). STAT3 activation was evaluated by using binding reactions with 20 μg of extracted protein, and radiolabeled high-affinity serum inducible element (hSIE) duplex oligonucleotide (Wagner et al., EMBO J. 9(13):4477-4484 (1990)). Quantification of the STAT3 signal was performed by scanning the SIF-A band using a Molecular Dynamics Personal Densitometer SI and IMAGEQUANT software. […] For supershift experiments, extracts were preincubated with STAT3 polyclonal antibody (C-20, Santa Cruz Biotechnology). Gel shift bands were quantified by densitometry and the Molecular Analyst software (AlphaDigidoc 1000, Alpha-Innotech) with normalization of each band to the positive control lysate run on that gel as described previously for STAT3 activation determinations (Grandis, J. R. et al. Proc Natl Acad Sci USA, 97: 4227-4232., 2000).

T2 sequence (P40763 2-770 limits assumed): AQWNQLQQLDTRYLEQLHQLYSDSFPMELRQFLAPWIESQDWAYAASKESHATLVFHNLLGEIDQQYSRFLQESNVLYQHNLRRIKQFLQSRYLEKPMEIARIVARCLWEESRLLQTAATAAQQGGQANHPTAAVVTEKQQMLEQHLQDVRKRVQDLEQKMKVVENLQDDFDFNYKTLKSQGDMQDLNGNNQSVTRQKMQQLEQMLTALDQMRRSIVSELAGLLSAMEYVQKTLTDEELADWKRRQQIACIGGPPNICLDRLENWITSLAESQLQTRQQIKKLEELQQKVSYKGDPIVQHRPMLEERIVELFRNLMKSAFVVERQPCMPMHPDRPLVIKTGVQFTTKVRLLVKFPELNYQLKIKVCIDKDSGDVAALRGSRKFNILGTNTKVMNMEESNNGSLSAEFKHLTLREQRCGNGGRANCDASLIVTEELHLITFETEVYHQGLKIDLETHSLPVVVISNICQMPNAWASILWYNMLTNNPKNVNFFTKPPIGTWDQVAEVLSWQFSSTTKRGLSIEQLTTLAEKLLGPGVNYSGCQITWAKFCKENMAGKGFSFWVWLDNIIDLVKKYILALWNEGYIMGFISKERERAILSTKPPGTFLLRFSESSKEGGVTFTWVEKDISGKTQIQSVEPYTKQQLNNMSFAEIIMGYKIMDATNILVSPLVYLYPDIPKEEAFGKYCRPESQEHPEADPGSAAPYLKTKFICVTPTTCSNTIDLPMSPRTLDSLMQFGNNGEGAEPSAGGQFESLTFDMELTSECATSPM

Molecule: mutant control decoy: double-stranded oligonucleotide 5′-CATTTCCCTTAAATC-3′, 3′-GTAAAGGGAATTTAG-5′; same sequence as Mutant 3 of Table 1 [reference compound]
- p53 reporter activity (p53-responsive element): not
- reporter gene expression from a GAS-responsive element (STAT1 reporter activity) (GAS-responsive element): not
- binding to STAT1 (STAT1): not

Molecule: Cc1cc2c(C(C)C)c(O)c(O)c(C=O)c2c(O)c1-c1c(C)cc2c(C(C)C)c(O)c(O)c(C=O)c2c1O [gossypol, 2,2′-bis-(Formyl-1,6,7-trihydroxy-5-isopropyl-3-methylnaphthalene)]
- IC50 (PCI-15B cells): 297 nM

B1: longer sequence: 5′-AGCTTGTCGACATTTCCCGTAAATCGTCGAG-3′, 3′-…-5′; longer decoy initially examined (nucleic acid, listed as Homo sapiens)
sense: AGCTTGTCGACATTTCCCGTAAATCGTCGAG
antisense: CTCGACGATTTACGGGAAATGTCGACAAGCT
modifications: listed as DNA, chemistry not given here
notes: longer decoy initially examined
- blocking STAT3 activation (STAT3): effective
